What was measured:
[1] = target: T1, Rat AR ligand-binding domains (His-GST-ARLBD) (Rattus norvegicus, UniProt P15207); experiment: AR fluorescence polarization-based competitive hormone-binding assay (PolarScreen AR Competitor Assay, Red); conditions: 25 nM His-GST-ARLBD, 2 nM Fluormone AL Red; read-out: IC50 of competitive binding to AR
T1 construct: purchased Invitrogen
T1 sequence (P15207 651-882 limits assumed): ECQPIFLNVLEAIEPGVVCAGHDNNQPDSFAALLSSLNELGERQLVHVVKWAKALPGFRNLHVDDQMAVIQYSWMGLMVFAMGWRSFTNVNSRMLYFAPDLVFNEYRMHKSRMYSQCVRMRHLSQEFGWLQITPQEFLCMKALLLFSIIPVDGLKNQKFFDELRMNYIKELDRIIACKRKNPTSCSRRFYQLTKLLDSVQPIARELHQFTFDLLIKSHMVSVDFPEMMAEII
Excerpt: Fig. 4 The affinity of indicated compounds to the AR and their regulation of AR transcriptional activity. a AR fluorescence polarization-based competitive hormone-binding assays. […] Curve fitting was done using GraphPad Prism software (version 7.00). […] ARE(3×)-regulated dual-luciferase activity in U2-OS cells under steroid-free conditions. Cells were transiently transfected with pcDNA3.1-AR and ARE3-luc2P (firefly luciferase reporter plasmids) and the internal normalization control pRL-TK (Renilla luciferase reporter plasmid). Six hours after transfection, cells were treated as indicated. Then they were assayed 48 h after transfection for dual-luciferase activity. […] Briefly, compounds were dissolved in DMSO and mixed at 2% (vol/vol) with AR Red Screening Buffer. The tested compounds were subsequently serially diluted in two-fold increments with AR Red Screening Buffer and mixed 1:1 (vol/vol) with a 2 × AR/Fluormone AL complex. Competition for binding AR between Fluormone AL and the tested compounds was allowed to come to equilibrium for 4 h and not more than 20 h at room temperature in the dark. Fluorescence polarization value (mP) was measured on a fluorescence polarization plate reader (Biotech cytation5). Each compound dose was performed in triplicate, relative error was calculated from the standard error of the mean (SEM), and curve fitting was performed using GraphPad Prism™ 7.0 software.

MCF-7 cells = experiment: Cell cycle analysis by flow cytometry; format: cell-based, human; conditions: 100 nM, 72 h
Description: Fig. 2 Proliferative response of cancer cells to indicated compounds. a–c the effect of concentrations of different compounds on the growth of the cells. Cells were cultured in 10% PRF-CT with E2 1 nM (MCF-7 and ZR-75-1) or without E2 (MDA-MB-231) for 3 days before plating. Cells were seeded in 96-well plates and 24 h later they were exposed to different concentrations (1 nM– 10 μM) of compounds for 6 days (MCF-7 and ZR-75-1) or 3 days (MDA-MB-231). Cell growth was measured as described in the “Materials and methods”. The proliferation of cells is expressed as the ratio of the cells compared with the control wells (untreated cells). d, e Influence of different compounds on the cell cycle of MCF-7 cells. MCF-7 cells were cultured in 10% PRF-CT with E2 (1 nM) for 3 days before plating. Cells were seeded in six-well plates and, the next day, starved in PRF for 24 h. Cells were exposed to different compounds at a concentration of 100 nM for 72 h, and then subjected to cell-cycle analysis as described in “Materials and methods”. f MCF-7 cells on poly-L-lysine-coated glass coverslips were exposed to compounds (100 nM) in 10% PRF-CT with 1 nM E2 for 72 h. Control cells were treated with vehicle. DAPI stains DNA, and the secondary anti-mouse antibody to detect the antibody bound to Ki-67 is labeled with the cyanine dye Cy3. The cells were stained with DAPI (blue). Immunofluorescence staining of Ki-67 of cells was observed using fluorescence microscope. Red: Ki-67; blue: nucleus.Typical image is shown. Scale bars: 10 μm. Data represent a mean ± SEM of three independent experiments, each in triplicate; bars, SEM. *P ≤ 0.05 vs. control
Cell cycle kinetics were studied by flow cytometry. MCF-7 cells were cultured in 10% PRF–CT with 1 nM E2 for 3 days prior to seeding on six-well plates (10^5 cells/well). Following seeding of cells, cells were serum starved for 24 h, and then treated with media containing 100 nM of the test compounds for 72 h. Cell-cycle analysis was performed as described by Ando[20].

[2] = test system: AR protein in MCF-7 cells; experiment: AR protein expression by western blot and immunofluorescence; format: cell-based, human; conditions: incubation 3 days
Description: Fig. 3 Influence of indicated compounds on the expression of the AR. […] AR protein expression was analyzed by western blot as described in “Materials and methods”. b The densitometric evaluation of the bands is calculated by ImageJ. The numbers represent the densitometric value relative to untreated control. […] Typical image is shown. Scale bars: 10 μm
Total cell proteins were obtained from 70% confluent cell cultures. Protein extracts of whole cells (50 μg) were denatured, separated by SDS–PAGE and transferred to polyvinylidene fluoride membranes. After blocking with 3% bovine serum albumin in Tris-buffered saline-Tween, membranes were probed overnight at 4 °C. […] After incubation with the appropriate secondary antibody, results were detected using ECL detection reagents. Immunoreactive bands were quantified by densitometry using ImageJ software.
MCF-7 cells were seeded on 24-well plates (2 × 10^4 cells/well) with a poly-L-lysine-coated glass coverslip per well in 10% PRF–CT. […] Cells were visualized with a ×40 objective and a Qimaging digital camera coupled to an Olympus X71 fluorescence microscope using a red fluorescent protein filter.

| SMILES | IC50 [1] [nM] | influence on the cell cycle (G1/G0 increase, S-phase decrease) (MCF-7 cells) | expression of the AR protein [2] | Cyclin D1 mRNA and protein (cyclin D1 in MCF-7 cells) |
| --- | --- | --- | --- | --- |
| C[C@]12CC[C@H]3[C@@H](CCC4=C(O)C(=O)CC[C@@]43C)[C@@H]1CC[C@@H]2O [4-OHT, 4-hydroxytestosterone] | 18.2 | most effective of the tested compunds | – | – |
| C=C1C[C@H]2[C@@H]3CC[C@H](O)[C@@]3(C)CC[C@@H]2[C@@]2(C)C=CC(=O)C=C12 [17-HEXE, 17-hydroexemestane] | 10.4 | – | – | – |
| C[C@]12CCC(=O)C[C@@H]1CC[C@@H]1[C@@H]2CC[C@]2(C)[C@@H](O)CC[C@@H]12 [DHT, dihydrotestosterone] | – | most significant influence on the cell cycle | enhanced considerably | decrease |
